Patent US9353091B2 (priority 2009, dated 2016)

What was measured:
[1] = target: T1, HCV polymerase 1A (Δ21 NS5B) (Hepatitis C virus genotype 1a, UniProt P27958); experiment: HCV Polymerase Inhibition Assay (1a); assay type: biochemical
T1 construct: 20 to 50 nM Δ21 NS5B
Protocol: (§1) Reaction volume was 50 μL. The reaction was terminated by the addition of 1 volume of 4 mM spermine in 10 mM Tris-Cl pH 8.0, 1 mM EDTA. After incubation for at least 15 minutes at room temperature, the precipitated RNA was captured by filtering through a GF/B filter (Millipore) in a 96 well format. The filter plate was washed three times with 200 μL, each of 2 mM spermine, 10 mM Tris-Cl pH 8.0, 1 mM EDTA, and 2 times with ethanol. After air-drying, 30 μL, of Microscint 20 scintillation cocktail (Packard) was added to each well, and the retained cpm were determined by scintillation counting. […] Retained cpm were plotted vs. inhibitor concentration and fit to equation 1 using non-linear regression (ref. 1) to obtain the IC50 values: Retained cpm=A[sqrt{(IC50+It−Et)^2+4*IC50*Et}−(IC50+It−Et)]
(§2) Ref. Morrison, J. F. and S. R. Stone. 1985. Approaches to the study and analysis of the inhibition of enzymes by slow- and tight-binding inhibitors. Comments Mol. Cell. Biophys. 2: 347-368.
(§3) The sequence of the template RNA used was: 5′-[…] […] […] […] […] […] […] […] […] […] […] […] […] […] […] […] […]-3′ (SEQ ID NO: 1)

[2] = tested on: genotype 1b-Con1 subgenomic replicon cell line; experiment: HCV Polymerase Replicon Assay (genotype 1b-Con1, luciferase reporter); assay type: cell-based; conditions: Hepatitis C virus, 72 h, 1b-Con1 replicon, three days
[3] = tested on: genotype 1a-H77 subgenomic replicon cell line; experiment: HCV Polymerase Replicon Assay (genotype 1a-H77, luciferase reporter); assay type: cell-based; conditions: Hepatitis C virus, 72 h, 1a-H77 replicon, three days
[4] = target: T2, HCV polymerase 1B (Δ21 NS5B) (Hepatitis C virus genotype 1b, UniProt P26663); experiment: HCV Polymerase Inhibition Assay (1b); assay type: biochemical
T2 construct: 20 to 50 nM Δ21 NS5B
T2 sequence (P26663 2420-2989, stated change not applied): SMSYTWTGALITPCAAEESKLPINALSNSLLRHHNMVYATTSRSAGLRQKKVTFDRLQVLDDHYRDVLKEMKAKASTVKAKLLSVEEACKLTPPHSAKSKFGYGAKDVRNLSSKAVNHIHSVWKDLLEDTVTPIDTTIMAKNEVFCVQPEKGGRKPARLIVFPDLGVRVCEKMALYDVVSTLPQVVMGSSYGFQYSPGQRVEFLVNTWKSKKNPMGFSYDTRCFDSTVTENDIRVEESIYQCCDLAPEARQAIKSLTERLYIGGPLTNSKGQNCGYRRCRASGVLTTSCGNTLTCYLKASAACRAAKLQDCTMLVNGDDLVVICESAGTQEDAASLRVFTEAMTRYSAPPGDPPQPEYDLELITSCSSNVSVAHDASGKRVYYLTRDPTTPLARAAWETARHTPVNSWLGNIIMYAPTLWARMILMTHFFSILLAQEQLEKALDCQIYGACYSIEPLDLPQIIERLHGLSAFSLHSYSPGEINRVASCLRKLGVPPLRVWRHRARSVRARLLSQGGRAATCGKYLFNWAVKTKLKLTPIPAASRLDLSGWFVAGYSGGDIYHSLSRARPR
Protocol: as §1, §2, §3

T1 sequence (P27958 2421-2990, stated change not applied): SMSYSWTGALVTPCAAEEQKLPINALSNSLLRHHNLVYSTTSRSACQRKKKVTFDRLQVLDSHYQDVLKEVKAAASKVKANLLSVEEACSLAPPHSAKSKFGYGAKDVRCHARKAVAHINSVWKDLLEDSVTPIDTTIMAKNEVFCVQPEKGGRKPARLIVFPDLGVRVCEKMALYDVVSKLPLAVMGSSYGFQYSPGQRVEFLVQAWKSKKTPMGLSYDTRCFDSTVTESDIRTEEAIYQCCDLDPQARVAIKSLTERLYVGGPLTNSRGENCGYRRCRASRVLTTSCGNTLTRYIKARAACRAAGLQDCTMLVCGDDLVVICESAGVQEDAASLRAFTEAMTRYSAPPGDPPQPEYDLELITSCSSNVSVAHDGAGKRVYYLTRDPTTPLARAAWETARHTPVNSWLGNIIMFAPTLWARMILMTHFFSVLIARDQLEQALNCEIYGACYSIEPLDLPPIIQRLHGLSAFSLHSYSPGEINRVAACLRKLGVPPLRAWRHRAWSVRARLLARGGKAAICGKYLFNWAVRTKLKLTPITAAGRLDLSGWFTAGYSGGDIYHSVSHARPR

| SMILES | IC50 [1] | EC50 [2] | EC50 [3] | IC50 [4] |
| --- | --- | --- | --- | --- |
| COc1c(-c2ccc3cc(NS(C)(=O)=O)ccc3c2)cc(NC(=O)CCNC(=O)OC(C)(C)C)cc1C(C)(C)C [compound 23, tert-butyl 3-(3-tert-butyl-4-methoxy-5-(6-(methylsulfonamido)naphthalen-2-yl)phenylamino)-3-oxopropylcarbamate] | 100 to 1000 nM | > 1000 nM | > 1000 nM | > 1000 nM |
| COc1c(-c2ccc3cc(NS(C)(=O)=O)ccc3c2)cc(-c2c[nH]c(=O)[nH]c2=O)cc1-c1cnn(C)c1 [compound 41, N-(6-(5-(2,4-dioxo-1,2,3,4-tetrahydropyrimidin-5-yl)-2-methoxy-3-(1-methyl-1H-pyrazol-4-yl)phenyl)naphthalen-2-yl)methanesulfonamide] | 100 to 1000 nM | > 1000 nM | > 1000 nM | 100 to 1000 nM |
| COc1c(-c2ccc3cc(NS(C)(=O)=O)ccc3c2)cc(NC(=O)CN)cc1C(C)(C)C [compound 20, 2-amino-N-(3-tert-butyl-4-methoxy-5-(6-(methylsulfonamido)naphthalen-2-yl)phenyl)acetamide] | > 1000 nM |  |  | > 1000 nM |
| COc1c(-c2ccc3cc(NS(C)(=O)=O)ccc3c2)cc(N2CCNC2=O)cc1C(C)(C)C [compound 27, N-(6-(3-tert-butyl-2-methoxy-5-(2-oxoimidazolidin-1-yl)phenyl)naphthalen-2-yl)methanesulfonamide] | 10 to 100 nM | 10 to 100 nM | 100 to 1000 nM | 10 to 100 nM |
| COc1c(-c2ccc(/C=N/NS(C)(=O)=O)cc2)cc(N2CCCS2(=O)=O)cc1C(C)(C)C [compound 45, (E)-N′-((3′-tert-butyl-5′-(2-(1,1-dioxidoisothiazolidin-2-yl))-2′ methoxybiphenyl-4-yl)methylene)methanesulfonylhydrazide] | 100 to 1000 nM | 100 to 1000 nM | > 1000 nM | 100 to 1000 nM |
| C=Cc1c(-c2ccc3cc(NS(C)(=O)=O)ccc3c2)cc(-c2c[nH]c(=O)[nH]c2=O)cc1C(C)(C)C [compound 35, N-(6-(3-tert-butyl-5-(2,4-dioxo-1,2,3,4-tetrahydropyrimidin-5-yl)-2-vinylphenyl)naphthalen-2-yl)methanesulfonamide] | < 10 nM | ≤ 10 nM | 10 to 100 nM | < 10 nM |
| COc1c(-c2ccc3c(c2)CC=C3CNS(C)(=O)=O)cc(-c2c[nH]c(=O)[nH]c2=O)cc1C(C)(C)C [compound 3, N-((6-(3-tert-butyl-5-(2,4-dioxo-1,2,3,4-tetrahydropyrimidin-5-yl)-2-methoxyphenyl)-1H-inden-3-yl)methyl)methanesulfonamide] | < 10 nM | ≤ 10 nM | ≤ 10 nM | < 10 nM |
| CCOC(=O)CCNC(=O)Nc1cc(-c2ccc3cc(NS(C)(=O)=O)ccc3c2)c(OC)c(C(C)(C)C)c1 [compound 21, ethyl 3-(3-(3-tert-butyl-4-methoxy-5-(6-(methylsulfonamido)naphthalen-2-yl)phenyl)ureido)propanoate] | 100 to 1000 nM | 100 to 1000 nM | 100 to 1000 nM | > 1000 nM |
| COc1c(-c2ccc3cc(NS(C)(=O)=O)ccc3c2)cc(NC(=O)NC(C)C)cc1C(C)(C)C [compound 18, N-(6-(3-tert-butyl-5-(3-isopropylureido)-2-methoxyphenyl)naphthalen-2-yl)methanesulfonamide] | > 1000 nM |  |  | > 1000 nM |
| COc1c(-c2ccoc2)cc(-c2c[nH]c(=O)[nH]c2=O)cc1-c1ccc2cc(NS(C)(=O)=O)ccc2c1 [compound 38, N-(6-(5-(2,4-dioxo-1,2,3,4-tetrahydropyrimidin-5-yl)-3-(furan-3-yl)-2-methoxyphenyl)naphthalen-2-yl)methanesulfonamide] | < 10 nM | 10 to 100 nM | 100 to 1000 nM | 10 to 100 nM |
| COc1c(-c2ccc3c(c2)CC=C3CNS(C)(=O)=O)cc(-c2c[nH]c(=O)[nH]c2=O)cc1-c1ccc(C)o1 [compound 44, N-((6-(5-(2,4-dioxo-1,2,3,4-tetrahydropyrimidin-5-yl)-2-methoxy-3-(5-methylfuran-2-yl)phenyl)-1H-inden-3-yl)methyl)methanesulfonamide] | 10 to 100 nM | 10 to 100 nM | 100 to 1000 nM | 10 to 100 nM |
| COc1c(-c2ccc3cc(NS(C)(=O)=O)ccc3c2)cc(N2CC(=O)NC2=O)cc1C(C)(C)C [compound 16, N-(6-(3-tert-butyl-5-(2,4-dioxoimidazolidin-1-yl)-2-methoxyphenyl)naphthalen-2-yl)methanesulfonamide] | 10 to 100 nM | 100 to 1000 nM | 100 to 1000 nM | 10 to 100 nM |
| COc1c(/C=C/c2ccc(NS(C)(=O)=O)cc2)cc(C(=O)c2ccccc2)cc1C(C)(C)C [compound 32, (E)-N-(4-(5-benzoyl-3-tert-butyl-2-methoxystyryl)phenyl)methanesulfonamide] | > 1000 nM |  |  | > 1000 nM |
| COc1c(-c2ccc3cc(NS(C)(=O)=O)ccc3c2)cc(N2CCCNC2=O)cc1C(C)(C)C [compound 26, N-(6-(3-tert-butyl-2-methoxy-5-(2-oxotetrahydropyrimidin-1(2H)-yl)phenyl)naphthalen-2-yl)methanesulfonamide] | 10 to 100 nM | ≤ 10 nM | 10 to 100 nM | 10 to 100 nM |
| COc1c(-c2ccc3cc(NS(C)(=O)=O)ccc3c2)cc(-c2c[nH]c(=O)[nH]c2=O)cc1-c1ccco1 [compound 40, N-(6-(5-(2,4-dioxo-1,2,3,4-tetrahydropyrimidin-5-yl)-3-(furan-2-yl)-2-methoxyphenyl)naphthalen-2-yl)methanesulfonamide] | < 10 nM | 10 to 100 nM | 100 to 1000 nM | < 10 nM |
| COc1c(-c2ccc3cc(NS(C)(=O)=O)ccc3c2)cc(NC(=O)CCN)cc1C(C)(C)C [compound 24, 3-amino-N-(3-tert-butyl-4-methoxy-5-(6-(methylsulfonamido)naphthalen-2-yl)phenyl)propanamide] | > 1000 nM |  |  | > 1000 nM |
| COc1c(Br)cc(-c2c[nH]c(=O)[nH]c2=O)cc1C(C)(C)C [compound 5, 5-(3-bromo-5-tert-butyl-4-methoxyphenyl)pyrimidine-2,4(1H,3H)-dione] | > 1000 nM | > 1000 nM | > 1000 nM | > 1000 nM |
| COc1c(-c2ccc3c(CNS(C)(=O)=O)csc3c2)cc(-c2c[nH]c(=O)[nH]c2=O)cc1C(F)(F)F [compound 51, N-((6-(5-(2,4-dioxo-1,2,3,4-tetrahydropyrimidin-5-yl)-2-methoxy-3-(trifluoromethyl)phenyl)benzo[b]thiophen-3-yl)methyl)methanesulfonamide] | < 10 nM | 10 to 100 nM | 100 to 1000 nM | 10 to 100 nM |
| COc1c(-c2ccc3cc(NS(C)(=O)=O)ccc3c2)cc(NC(=O)CNC(=O)OC(C)(C)C)cc1C(C)(C)C [compound 19, tert-butyl 2-(3-tert-butyl-4-methoxy-5-(6-(methylsulfonamido)naphthalen-2-yl)phenylamino)-2-oxoethylcarbamate] | > 1000 nM |  |  | > 1000 nM |
| COc1c(-c2c[nH]c(=O)[nH]c2=O)cc(-c2ccc3cc(NS(C)(=O)=O)ccc3c2)cc1C(C)(C)C [compound 1, N-(6-(3-tert-butyl-5-(2,4-dioxo-1,2,3,4-tetrahydropyrimidin-5-yl)-4-methoxyphenyl)naphthalen-2-yl)methanesulfonamide] | 100 to 1000 nM |  |  | 100 to 1000 nM |
| COc1c(-c2ccc3cc(NS(C)(=O)=O)ccc3c2)cc(C(=O)c2ccccc2)cc1C(C)(C)C [compound 31, N-(6-(5-benzoyl-3-tert-butyl-2-methoxyphenyl)naphthalen-2-yl)methanesulfonamide] | > 1000 nM |  |  | > 1000 nM |
| COc1c(/C=C/c2ccc(NS(C)(=O)=O)cc2)cc(-c2c[nH]c(=O)[nH]c2=O)cc1C(C)(C)C [compound 4, (E)-N-(4-(3-tert-butyl-5-(2,4-dioxo-1,2,3,4-tetrahydropyrimidin-5-yl)-2-methoxystyryl)phenyl)methanesulfonamide] |  | ≤ 10 nM | ≤ 10 nM |  |
| COc1c(-c2ccc3cc(NS(C)(=O)=O)ccc3c2)cc(NC(=O)Nc2ccccc2)cc1C(C)(C)C [compound 17, N-(6-(3-tert-butyl-2-methoxy-5-(3-phenylureido)phenyl)naphthalen-2-yl)methanesulfonamide] | > 1000 nM |  |  | > 1000 nM |
| COc1c(-c2ccc3cc(NS(C)(=O)=O)ccc3c2)cc(-c2ccc(F)cc2F)cc1C(C)(C)C [compound 11, N-(6-(5-tert-butyl-2′,4′-difluoro-4-methoxybiphenyl-3-yl)naphthalen-2-yl)methanesulfonamide] | > 1000 nM | > 1000 nM |  | > 1000 nM |
